Target: T1, Bex1 (recombinant Bex1 protein) (Mus musculus, UniProt Q9R224)
T1 construct: N-terminal hexahistidine tag (pETDuet-1), expressed in E. coli Rosetta-gami 2(DE3)pLysS, non-denaturing Ni-NTA purification, 15N-labelled; tag removal not mentioned
T1 sequence (Q9R224 1-128): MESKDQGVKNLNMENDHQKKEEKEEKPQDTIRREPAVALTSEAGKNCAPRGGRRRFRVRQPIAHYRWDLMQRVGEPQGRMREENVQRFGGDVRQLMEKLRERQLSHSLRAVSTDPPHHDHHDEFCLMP
Assay: 2D 1H-15N HSQC NMR titration (chemical shift perturbation)
Format: binding
Text: 2D 1H-15N HSQC NMR titration (chemical shift perturbation) on Bex1 (recombinant Bex1 protein) | The peak shift of Bex1 was GTP concentration-dependent with the dissociation constant (Kd) equal to […]

`Nc1nc2c(ncn2[C@@H]2O[C@H](COP(=O)(O)OP(=O)(O)OP(=O)(O)O)[C@@H](O)[C@H]2O)c(=O)[nH]1` [GTP] gave a Kd of 244 ± 98 µM.

— paper PMC8830175, “Bex1 is essential for ciliogenesis and harbours biomolecular condensate-forming capacity” (BMC Biology, 2022)
